This note sets out measurements from publication PMC4432651, “Dynamic interplay between catalytic and lectin domains of GalNAc-transferases modulates protein O-glycosylation” (Nature Communications, 2015).

SMILES strings stand for the structures. Where a SMILES comes first, the peptide text is derived from it. The star is where a group is joined. αGalNAc = CC(=O)N[C@@H]1[C@@H](O)[C@@H](O)[C@@H](CO)O[C@@H]1*

This experiment deals with T1, GalNAc-T2 (Homo sapiens, UniProt Q10471).
T1 construct: made in house
Description: SAXS with Ensemble Optimization Method: GalNAc-T2 conformations/oligomers with ligands. Particulars: for Rg from p(r) (GNOM) / Dmax / Rg (Guinier): GalNAc-T2 5 mg/ml, 25 mM TRIS pH 7.5, 10 mM MnCl2, 10 °C; for Dmax: maximum intramolecular distance, GNOM. Here is the method:
SAXS measurements were performed at the European Molecular Biology Laboratory on the storage ring PETRA-III (DESY-Hamburg) on the P12 beamline equipped with a robotic sample changer and a PILATUS-2M. The analysis of the SAXS data was performed by using the EOM[31]. Additional details are in Supplementary Methods. […]
Small-angle X-ray scattering (SAXS) and data analysis
All experiments were performed in a buffer consisting of 25 mM TRIS pH 7.5, 10 mM MnCl2. The first set of experiments contained three different protein concentrations: 10 mg/ml (180 µM), 5 mg/ml (90 µM), 2.5 mg/ml (45 µM) and 1 […]
mg/ml (18 µM). The protein was measured alone and in the presence of ten times molar excess of UDP, UDP-GalNAc, UDP-EA2 peptide, MUC5AC-13, UDP-MUC5AC-13, MUC5AC, and UDP-MUC5AC. The second set of experiments was carried out with the protein concentration fixed at 5 mg/ml, and increasing concentrations of UDP (450 µM, 900 µM, 1.8 mM, 4.5 mM and 9 mM). The concentration of MUC5AC-13 was also changed as follows: 1 mM, 5 mM and 7.5 […]
Synchrotron SAXS measurements were performed at the European Molecular
Biology Laboratory (EMBL) on the storage ring PETRA-III (DESY-Hamburg) on the P12 beamline equipped with a robotic sample changer and a PILATUS-2M. The sample-detector distance was 3.1 m. The scattering intensity, I(s), was recorded at 10 °C in a momentum transfer range of 0.007<s<0.444 Å -1, where s = (4πsinθ )/λ , 2θ is the scattering angle, and λ = 1.24 Å is the X-ray wavelength. Twenty consecutive 0.05 second measurements were performed for protein samples and buffers to monitor for radiation damage that were subsequently averaged (no systematic radiation effects were observed). Buffer scattering profiles were subtracted from the sample ones using standard procedures 8. The values of the forward scattering, I(0), and radii of gyration, Rg, were calculated from the experimental SAXS patterns using Guinier’s approximation (Supplementary Fig. 4 and 5), I(s) = I(0)exp(-s2Rg2/3), which is valid in the range sRg < 1.3.
Structural analysis of the SAXS data was performed using the Ensemble Optimization Method (EOM)9. A pool of 10,000 monomeric structures of GalNac-T2 was constructed with the program RanCh9 by connecting three-dimensional structures of the catalytic and the lectin domains, extracted from the crystallographic structure 2FFU, with a flexible linker of 12 residues with random coil conformations. To […]
properly describe the data, these monomeric ensembles were enriched with 100 equivalent curves corresponding to one dimeric arrangement. As we tested three dimers, we built three different ensembles with the same 10,000 monomeric conformations and 100 copies of each one of the dimers. The three different dimers used for SAXS are shown in Supplementary Fig. 3c and correspond to three different crystal structures obtained under different conditions.
The scattering profiles of all members of the pool were computed with the program CRYSOL using standard parameters10. The pool of structures/profiles was submitted to the genetic algorithm (GA) with the aim to select a subensemble of 50 structures/curves with the capacity to collectively describe the experimental SAXS […]
was repeated 200 times starting from different randomly selected subensembles, and the resulting solutions were analysed together. The same pool was used to describe all the measured data. Results were quantitatively analysed by displaying the Rg distributions of the selected ensembles and the relative population of monomeric and dimeric species.
Three different dimeric arrangements were introduced individually in the pool. In all three cases the dimers display similar contacts between the lectin domains and the lectin domain of one monomer with the catalytic domain of a second monomer (Supplementary Fig. 3c). We can distinguish the crystallographic dimers by the buried area parameter inferred from the PISA server. The dimers present in the crystal structure of GalNAc-T2-UDP complex (PDB entry 2FFV) are the most compact ones […]

The mark [1] stands for this setting: ligand molar ratio GalNAc-T2:ligand 1:10.
Where [2] appears, read: ligand molar ratio GalNAc-T2:ligand 1:20.

T1 sequence (Q10471 75-571 limits assumed): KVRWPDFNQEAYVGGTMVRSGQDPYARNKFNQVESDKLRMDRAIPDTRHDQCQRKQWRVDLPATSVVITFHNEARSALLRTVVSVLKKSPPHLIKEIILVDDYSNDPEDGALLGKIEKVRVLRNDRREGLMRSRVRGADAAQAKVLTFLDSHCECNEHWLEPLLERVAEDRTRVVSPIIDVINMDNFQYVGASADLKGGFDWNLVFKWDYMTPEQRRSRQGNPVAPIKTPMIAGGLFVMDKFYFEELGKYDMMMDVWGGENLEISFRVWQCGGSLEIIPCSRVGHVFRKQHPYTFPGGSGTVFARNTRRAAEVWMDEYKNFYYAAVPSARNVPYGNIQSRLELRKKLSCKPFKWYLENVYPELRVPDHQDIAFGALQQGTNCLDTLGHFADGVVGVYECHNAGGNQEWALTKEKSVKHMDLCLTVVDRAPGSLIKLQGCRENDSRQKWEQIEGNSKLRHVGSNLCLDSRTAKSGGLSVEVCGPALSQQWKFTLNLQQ

Turning to `CC(=O)NCC(=O)N[C@H](C(=O)N[C@H](C(=O)N1CCC[C@H]1C(=O)N[C@@H](CO)C(=O)N1CCC[C@H]1C(=O)N[C@H](C(=O)N1CCC[C@H]1C(=O)N[C@H](C(=O)N[C@H](C(=O)N[C@@H](CO)C(=O)N[C@H](C(=O)N[C@H](C(=O)N[C@@H](CO)C(=O)N[C@@H](C)C(N)=O)[C@@H](C)O[C@H]1O[C@H](CO)[C@H](O)[C@H](O)[C@H]1NC(C)=O)[C@@H](C)O)[C@@H](C)O)[C@@H](C)O)C(C)C)[C@@H](C)O)[C@@H](C)O` [MUC5AC-13] (Ac-GTTPSPVPTTSTT(αGalNAc)SA-NH2; N-terminus assumed), the “effect on GalNAc-T2 dimers (in words)” value (GalNAc-T2 fixed at 5 mg ml−1, increasing concentrations of peptide) is “dimers almost disappear from solution”. The “Rg from p(r) (GNOM)” value turned out to be 30.6 Å (ligand molar ratio 1:10), 29.2 Å (ligand molar ratio 1:20) and 31.7 Å (peptide + UDP (1:10)). In addition, the Dmax is given as 112 Å (ligand molar ratio 1:10), 102 Å (ligand molar ratio 1:20) and 112 Å (peptide + UDP (1:10)). Also, the “Rg (Guinier)” value is given as 30.2±0.2 Å under setting [1], 29.1±0.1 Å under setting [2] and 30.7±0.4 Å (peptide + UDP (1:10)).
As to `O=c1ccn([C@@H]2O[C@H](COP(=O)(O)OP(=O)(O)O)[C@@H](O)[C@H]2O)c(=O)[nH]1` [UDP, uridine diphosphate, reference compound], the “Rg from p(r) (GNOM)” value was determined as 34.3 Å (ligand molar ratio 1:5), 35.0 Å (ligand molar ratio 1:10), 34.5 Å (ligand molar ratio 1:20) and 36.0 Å (ligand molar ratio 1:50). Besides, the Dmax is, setting by setting: (ligand molar ratio 1:5) 121 Å; (ligand molar ratio 1:10) 123 Å; (ligand molar ratio 1:20) 122 Å; (ligand molar ratio 1:50) 129 Å. For the same compound, the “Rg (Guinier)” value (ligand molar ratio GalNAc-T2:ligand 1:5) is recorded as 32.7±0.3 Å, the “Rg (Guinier)” value under setting [1] turned out to be 34.4±0.3 Å, the “Rg (Guinier)” value under setting [2] is reported as 34.0±0.2 Å and the “Rg (Guinier)” value (ligand molar ratio GalNAc-T2:ligand 1:50) turned out to be 36.0±0.3 Å.
